Earlier results as cited in US9452147B2, “Lipolytic methods” (Neothetics, Inc., priority 2005, dated 2016).

Columns and labels:
[1] = relative to albuterol 5, a short acting hydrophilic beta agonist
[2] = test system: thigh circumference in women; conditions: subcutaneous injections three to five times per week in multiple locations over the thighs

SMILES | times more lipophilic than albuterol 5 [1] | thigh circumference in women [2]
OCc1cc(C(O)CNCCCCCCOCCCCc2ccccc2)ccc1O (racemic) [salmeterol 1, ±2-(hydroxymethyl)-4-[1-hydroxy-2-[6-(4-phenylbutoxyl)hexylamino]ethyl]-phenol] | at least 10,000 times | 
CC(C)NCC(O)c1ccc(O)c(O)c1 (stereo not drawn) [isoproterenol] |  | reduce the thigh circumference
COC(=O)[C@@H]1[C@H]2C[C@H]3c4[nH]c5ccccc5c4CCN3C[C@@H]2CC[C@@H]1O [yohimbine] |  | reduce the thigh circumference
